These results are taken from patent publication US20250236609A1, “VPS34 INHIBITORS AND METHODS OF USE THEREOF” (Deciphera Pharmaceuticals, LLC, priority 2023, published 2025).

Each structure is given as a SMILES string. pIC50: −log10 of the molar value.

As usually defined, the pIC50 is −log10 of the IC50, conventionally taken in molar units.

This test deals with VPS34 (Homo sapiens (Human), UniProt Q8NEB9). Description: Biochemical Assay for VPS34 (ADP-Glo kinase activity assay). As to conditions: 25 nM VPS34, 1 mM ATP, 1-hour incubation at 37° C.; read-out: VPS34 (Inhibition of biochemical activity of VPS34, IC50). On the procedure: Activity of VPS34 kinase was determined using an ADP-Glo kinase activity assay (Promega Corp). Assays were conducted in 384-well plates (5 μL assay volume) using 25 nM VPS34 (ThermoFisher Scientific), […] PI:3PS Lipid Kinase Substrate (Promega Corp.), and 1 mM ATP in kinase buffer. Inhibition of VPS34 was measured by adding serial diluted test compound (final assay concentration of 0.1% DMSO) followed by a 1-hour incubation at 37° C. ADP-Glo reagent was then added ([…]) followed by a 40 min incubation at rt. Kinase detection reagent was then added ([…]) and followed by a 60 min incubation at rt. Luminescence was then detected. The RLU at each compound concentration of was converted to percent inhibition using controls (i.e., reaction with no test compound and reaction with a known inhibitor) and IC50 values were calculated by fitting a four-parameter sigmoidal curve to the data using GeneData Screener software.
VPS34 Protein Sequence (Full Length with GST Tag)
In general terms: ADP-Glo turns the ADP formed in a reaction into a luminescent signal.

VPS34, sequence (Q8NEB9 other isoform, or with tags, fused parts or gaps): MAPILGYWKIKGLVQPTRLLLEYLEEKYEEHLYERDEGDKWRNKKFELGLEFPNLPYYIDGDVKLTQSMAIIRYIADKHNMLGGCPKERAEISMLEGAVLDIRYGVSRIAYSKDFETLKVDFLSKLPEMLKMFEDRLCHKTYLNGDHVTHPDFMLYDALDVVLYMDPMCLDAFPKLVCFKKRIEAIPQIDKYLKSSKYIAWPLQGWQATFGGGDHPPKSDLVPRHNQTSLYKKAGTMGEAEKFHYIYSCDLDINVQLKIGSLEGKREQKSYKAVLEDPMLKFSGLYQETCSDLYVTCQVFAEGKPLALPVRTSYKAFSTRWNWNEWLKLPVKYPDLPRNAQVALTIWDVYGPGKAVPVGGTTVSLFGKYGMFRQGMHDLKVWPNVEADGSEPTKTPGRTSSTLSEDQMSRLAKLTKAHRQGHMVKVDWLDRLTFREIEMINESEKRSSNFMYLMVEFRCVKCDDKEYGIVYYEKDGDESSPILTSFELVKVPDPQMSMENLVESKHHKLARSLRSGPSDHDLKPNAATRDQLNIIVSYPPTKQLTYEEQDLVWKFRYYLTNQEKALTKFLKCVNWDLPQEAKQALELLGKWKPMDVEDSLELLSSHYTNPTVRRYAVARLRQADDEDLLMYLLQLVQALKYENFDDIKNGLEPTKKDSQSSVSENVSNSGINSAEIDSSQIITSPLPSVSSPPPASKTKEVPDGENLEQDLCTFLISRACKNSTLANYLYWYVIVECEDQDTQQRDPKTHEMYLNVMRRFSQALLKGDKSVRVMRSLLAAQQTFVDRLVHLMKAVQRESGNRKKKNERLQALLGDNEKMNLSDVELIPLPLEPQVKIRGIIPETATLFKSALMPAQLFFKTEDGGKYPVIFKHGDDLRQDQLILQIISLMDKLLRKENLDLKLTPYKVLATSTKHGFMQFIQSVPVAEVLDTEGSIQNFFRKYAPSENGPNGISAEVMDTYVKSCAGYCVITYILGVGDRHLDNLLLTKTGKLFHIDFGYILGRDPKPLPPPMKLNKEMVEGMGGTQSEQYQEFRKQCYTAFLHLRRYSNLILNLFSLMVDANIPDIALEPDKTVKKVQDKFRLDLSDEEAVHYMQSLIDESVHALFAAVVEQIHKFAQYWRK

In the case of `Cc1cnc(NC(=O)c2cn[nH]c2)cc1-c1cc(N2CCCC[C@@H]2C(F)(F)F)[nH]c(=O)c1` [Example 47], the negative-log IC50 (pIC50) is 6.00 to 6.30. In the case of `Cc1cnc(NC(=O)C2CC2)cc1-c1cc(-c2cnccc2C(F)(F)F)[nH]c(=O)c1` [Example 48], the negative logarithm of the IC50 (pIC50) is 6.30 to 7.00.

For the compound `COC(=O)Nc1cc(-c2cc(-c3cccnc3C(F)(F)F)[nH]c(=O)c2)c(CF)cn1` [Example 50], the pIC50 is 5.00 to 6.00. Turning to `COC(=O)Nc1cc(-c2cc(-c3cccnc3C(F)(F)F)[nH]c(=O)c2)c(Cl)cn1` [Example 51], the pIC50 is 5.00 to 6.00. As for `CNC(=O)Nc1cc(-c2cc(-c3cccnc3C(F)(F)F)[nH]c(=O)c2)c(C)cn1` [Example 52], the negative logarithm of the IC50 (pIC50) is 5.00 to 6.00. Consider `CNc1cc(-c2cc(N3CCCC[C@@H]3C(F)(F)F)[nH]c(=O)c2)c(C)cn1` [Example 53], for which the negative logarithm of the IC50 (pIC50) was 5.00 to 6.00. Regarding `Cc1cnc(NC(=O)OC2CNC2)cc1-c1cc(N2CCCC[C@@H]2C(F)(F)F)[nH]c(=O)c1` [Example 54], the negative-log IC50 (pIC50) was 5.00 to 6.00. For `Cc1cnc(N)cc1-c1cc(-c2cccnc2C(F)(F)F)[nH]c(=O)c1` [Example 55] the value was 5.00 to 6.00; for `Cc1cnc(NC2COC2)cc1-c1cc(N2CCCC[C@@H]2C(F)(F)F)[nH]c(=O)c1` [Example 56], 5.00 to 6.00. For `Cc1cnc(NC(=O)[C@H]2CCN(C)C2)cc1-c1cc(N2CCCC[C@@H]2C(F)(F)F)[nH]c(=O)c1` [Example 57] the value was 5.00 to 6.00; for `CNCCC(=O)N1CCN(c2cc(-c3cc(NC(=O)OC)ncc3C)cc(=O)[nH]2)[C@@H](C(F)(F)F)C1` [Example 58], 5.00 to 6.00; for `Cc1cnc(NC(=O)NC2CC2)cc1-c1cc(N2CCCC[C@@H]2C(F)(F)F)[nH]c(=O)c1` [Example 59], 5.00 to 6.00. For `CNCCC(=O)N1CCN(c2cc(-c3cc(NC(=O)OC)ncc3C)cc(=O)[nH]2)[C@@H](C)C1` [Example 60] the value was 5.00 to 6.00; for `COC(=O)Nc1cc(-c2cc(N3CCN(C(=O)CCN(C)C)C[C@@H]3C(F)(F)F)[nH]c(=O)c2)c(C)cn1` [Example 61], 5.00 to 6.00. In the case of `Cc1cnc(NC(=O)C2COC2)cc1-c1cc(N2CCCC[C@@H]2C(F)(F)F)[nH]c(=O)c1` [Example 62], the pIC50 was 5.00 to 6.00. For `COC(=O)Nc1cc(-c2cc(N3CCN(C(=O)CCN(C)C)C[C@@H]3C)[nH]c(=O)c2)c(C)cn1` [Example 63], the pIC50 is 5.00 to 6.00. For `CNCC(=O)Nc1cc(-c2cc(-c3cccnc3C(F)(F)F)[nH]c(=O)c2)c(C)cn1` [Example 64], the pIC50 was 5.00 to 6.00. The figure for `Cc1cnc(NC(=O)[C@@H]2CCN(C)C2)cc1-c1cc(N2CCCC[C@@H]2C(F)(F)F)[nH]c(=O)c1` [Example 65] is 5.00 to 6.00; for `CNCCS(=O)(=O)Nc1ccc(-c2cc(-c3cc(NC(=O)C4CC4)ncc3C)cc(=O)[nH]2)c(C)c1` [Example 66] it is 6.30 to 7.00.

With `COC[C@H]1CCCN1c1cc(-c2cc(NC(=O)OC)ncc2C)cc(=O)[nH]1` [Example 67], the negative-log IC50 (pIC50) was 5.00 to 6.00. Regarding `Cc1cnc(NC(=O)c2cnn(C)c2)cc1-c1cc(-c2cccnc2C(F)(F)F)[nH]c(=O)c1` [Example 68], the negative logarithm of the IC50 (pIC50) is 5.00 to 6.00. `Cc1cnc(Nc2cnn(CCN(C)C)c2)cc1-c1cc(N2CCCC[C@@H]2C(F)(F)F)[nH]c(=O)c1` [Example 69]: the negative-log IC50 (pIC50) is 5.00 to 6.00. In the case of `COC(=O)Nc1cc(-c2cc(-c3cccnc3C3CC3)[nH]c(=O)c2)c(C)cn1` [Example 70], the pIC50 was 5.00 to 6.00. The figure for `Cc1cnc(Nc2ccn(C)n2)cc1-c1cc(N2CCCC[C@@H]2C(F)(F)F)[nH]c(=O)c1` [Example 71] is 5.00 to 6.00; for `Cc1ccnc(Nc2cc(-c3cc(N4CCCC[C@@H]4C(F)(F)F)[nH]c(=O)c3)c(C)cn2)n1` [Example 72] it is at least 7.00. For `CNCCC(=O)Nc1cc(-c2cc(-c3cccnc3C(F)(F)F)[nH]c(=O)c2)c(C)cn1` [Example 73], the negative-log IC50 (pIC50) is 5.00 to 6.00. The figure for `Cc1cnc(NC(=O)c2cnn(C3CNC3)c2)cc1-c1cc(N2CCCC[C@@H]2C(F)(F)F)[nH]c(=O)c1` [Example 74] is 5.00 to 6.00. For `CCS(=O)(=O)N1CCN(c2cc(-c3cc(NC(=O)C4CC4)ncc3C)cc(=O)[nH]2)[C@@H](C)C1` [Example 76], the pIC50 is 6.30 to 7.00. For `COC(=O)Nc1cc(-c2cc(-c3ccncc3C(F)(F)F)[nH]c(=O)c2)c(C)cn1` [Example 79] the value was 6.30 to 7.00; for `Cc1nc(Nc2cc(-c3cc(N4CCCC[C@@H]4C(F)(F)F)[nH]c(=O)c3)c(C)cn2)no1` [Example 80], 5.00 to 6.00. As for `Cc1cnc(NC(=O)C2CC2)cc1-c1cc(N2CCN(S(=O)(=O)C3CC3)C[C@@H]2C)[nH]c(=O)c1` [Example 82], the pIC50 is at least 7.00.

Consider `COCCS(=O)(=O)N1CCN(c2cc(-c3cc(NC(=O)C4CC4)ncc3C)cc(=O)[nH]2)[C@@H](C)C1` [Example 83], for which the pIC50 was 6.30 to 7.00. For `Cc1cnc(NC(=O)C2CC2)cc1-c1cc(N2CCN(S(=O)(=O)c3cnn(C)c3)C[C@@H]2C)[nH]c(=O)c1` [Example 84] the value was at least 7.00.

`Cc1cnc(NC(=O)C2CC2)cc1-c1cc(N2CCN(S(=O)(=O)CC3CC3)C[C@@H]2C)[nH]c(=O)c1` [Example 85]: the pIC50 is at least 7.00. For `Cc1cnc(NC(=O)C2CC2)cc1-c1cc(N2CCN(S(=O)(=O)c3cc(F)ccc3F)C[C@@H]2C)[nH]c(=O)c1` [Example 86] the value was 6.30 to 7.00.

With `COc1ccc(S(=O)(=O)N2CCN(c3cc(-c4cc(NC(=O)C5CC5)ncc4C)cc(=O)[nH]3)[C@@H](C)C2)cc1` [Example 87], the pIC50 was 6.30 to 7.00. The figure for `Cc1cnc(NC(=O)C2CC2)cc1-c1cc(N2CCN(C(=O)c3ccc(F)cc3)C[C@@H]2C)[nH]c(=O)c1` [Example 88] is 5.00 to 6.00. For `Cc1cnc(NC(=O)C2CC2)cc1-c1cc(N2CCN(C(=O)c3cnn(C)c3)C[C@@H]2C)[nH]c(=O)c1` [Example 89] the value was 6.00 to 6.30; for `COc1ccc(C(=O)N2CCN(c3cc(-c4cc(NC(=O)C5CC5)ncc4C)cc(=O)[nH]3)[C@@H](C)C2)cc1` [Example 92], 5.00 to 6.00; for `Cc1cnc(NC(=O)C2CC2)cc1-c1cc(N2CCN(C(=O)CC3CC3)C[C@@H]2C)[nH]c(=O)c1` [Example 93], 5.00 to 6.00.

As for `Cc1cnc(NC(=O)C2CC2)cc1-c1cc(N2CCN(C(=O)c3cccnc3)C[C@@H]2C)[nH]c(=O)c1` [Example 94], the negative-log IC50 (pIC50) is 5.00 to 6.00. In the case of `COCCC(=O)N1CCN(c2cc(-c3cc(NC(=O)C4CC4)ncc3C)cc(=O)[nH]2)[C@@H](C)C1` [Example 95], the pIC50 was 5.00 to 6.00. Regarding `Cc1nccc(Nc2cc(-c3cc(NS(=O)(=O)c4ccc(F)cc4F)[nH]c(=O)c3)c(C)cn2)n1` [Example 96, 2,4-difluoro-N-(5′-methyl-2′-((2-methylpyrimidin-4-yl)amino)-6-oxo-1,6-dihydro-[4,4′-bipyridin]-2-yl)benzenesulfonamide], the pIC50 was 6.30 to 7.00. For the compound `Cc1cnc(NC(=O)C2CC2)cc1-c1cc(NS(=O)(=O)c2ccc(F)cc2F)[nH]c(=O)c1` [compound 97], the negative logarithm of the IC50 (pIC50) is 6.30 to 7.00.
